# Patent US20210128740A1, “HDAC INHIBITORS-BASED ANTIBODY DRUG CONJUGATES (ADCs) AND USE IN THERAPY” (ALFASIGMA S.P.A., priority 2017, published 2021)
# Tests used:
# Design in all cases: species or system mice
# [1] = system: NCI-H1975 non-small cell lung carcinoma; assay: In vivo antitumor effect against s.c. NCI-H1975 non-small cell lung cancer; conditions: 120 mg/kg, ip, q4dx4
# Procedure: Nude Nu/Nu female mice (from Charles River, Italy) were given a single subcutaneous injection of 5×10^6 NCI-H1975 non-small cell lung carcinoma cells suspended in 100 μL cell culture medium RPMI supplemented with 10% FBS. […] Vehicle group was treated by PBS. Tumor growth was measured with a caliper and tumor volume was calculated using the formula length (mm)×width 2 (mm)/2. The tumor inhibition was calculated according to the equation: % TVI=100−(mean tumor volume of treated group/mean tumor volume of control group)×100. Toxicity was evaluated on the basis of the body weight reduction.
# Animals were euthanized by CO2 inhalation when the tumors reached a volume around 1200 mm^3.
# [2] = system: CAPAN-1 orthotopic pancreatic tumor; assay: In vivo antitumor effect against orthotopic CAPAN-1 pancreas cancer; conditions: 200 mg/kg, ip, q4dx4
# Source text: Capan-1 (1×10^6) cells were directly injected into pancreas of experimental groups.
# [3] = system: A549 non-small cell lung carcinoma; assay: In vivo antitumor effect of combination of Cetuximab with ST7612AA1 vs ADC against s.c. A549 lung cancer (Example 31)
# Procedure: The human A549 lung carcinoma cells were cultured in their appropriate complete medium. On the day of tumor injection, cells were harvested from subconfluent cultures by trypsinization, washed with PBS, suspended in PBS and subcutaneously injected into the right flank of immunodeficient mice (5×10^6/100 μL). Treatments started when tumor size was around 80 mm^3 and mice were randomized into the experimental groups (10 mice/group): […]
compound,measurement,setting,value
CC(=O)SCCCCC[C@H](NC(=O)[C@H]1CCC(=O)N1)C(=O)Nc1ccccc1 [ST7612AA1],Antitumor activity,[1],completely inactive
same,Tumor growth inhibition,[2],32%
same,Antitumor activity,"[3]; 0.1 mg/kg, ip, q4dx4",not effective
same,TVI at day 50,"[3]; 0.1 mg/kg, ip, q4dx4","0, P = 0.95"
same,TVI at day 56,"[3]; 0.1 mg/kg, ip, q4dx4","0, P = 0.88"
same,TVI at day 50,"[3]; 40 mg/kg, po, qdx5/wx3w","33, P = 0.007"
same,TVI at day 56,"[3]; 40 mg/kg, po, qdx5/wx3w","35, P = 0.0009"
